One experiment has as its system Fusarium culmorum. The experiment can be described thus: Test of preventive effect on wheat Fusarium blight. The conditions noted are these: wheat (Shirogane), foliage application 500 ppm, 4 days darkness and high humidity at 23° C. then 3 days lighting. The format is in vivo. As for the experimental part: (§1) The controlling effect was evaluated by visually observing the area or a lesion spots on each of test plants at the time of investigation and comparing the area of lesion spots on a plant treated with the compound of the present invention with that on an untreated plant.
Each of plastic pots was filled with sandy loam and sown with wheat (cultivar; Shirogane), followed by growing in a greenhouse for 10 days. The compound 1 of the present invention was formulated into a flowable formulation according to Formulation Example 6. The flowable formulation was diluted to a predetermined concentration (500 ppm) with water, and foliage application of the dilution was carried out so that the dilution adhered sufficiently to the surfaces of leaves of the grown wheat young seedling. After the foliage application, the plant was air-dried and then inoculated by spraying a water suspension of spores of Fusarium culmorum. After the inoculation, the plant was held under darkness and high humidity conditions at 23° C. for 4 days and held under lighting conditions for 3 days, and then the area of lesion spots was investigated.

The test system of a further experiment is Sclerotinia sclerotiorum. Put plainly: Test of preventive effect on cucumber stem rot. As to conditions: cucumber (Sagamihanjiro), foliage application 500 ppm, 4 days at 18° C. and high humidity. The format is in vivo. As for the experimental part:
as §1
Each of plastic pots was filled with sandy loam and sown with cucumber (variety; Sagamihanjiro), followed by growing in a greenhouse for 12 days. The compound 2 of the present invention was formulated into a flowable formulation according to Formulation Example 6. The flowable formulation was diluted to a predetermined concentration (500 ppm) with water, and foliage application of the dilution was carried out so that the dilution adhered sufficiently to the surfaces of leaves of the grown cucumber young seedling. After the foliage application, the plant was air-dried and a PDA medium containing mycelia of Sclerotinia sclerotiorum was placed on the surfaces of the cucumber leaves. After the inoculation, the plant was grown at 18° C. and high humidity for 4 days. Then, the area of lesion spots was investigated.

Take `C#CCOc1c(F)cc(C(=O)NCC2CCCCC2)cc1Cl` [compound 1, N-(cyclohexylmethyl)-3-chloro-5-fluoro-4-(2-propynyloxy)benzamide]: the “area of lesion spots on the treated plant relative to that on an untreated plant” value in the experiment with Fusarium culmorum is at most 30%.

Take `C#CCOc1c(F)cc(C(=O)NC2CCCCC2C)cc1Cl` (centres unmarked) [compound 2, N-(2-methylcyclohexyl)-3-chloro-5-fluoro-4-(2-propynyloxy)benzamide]: the “area of lesion spots on the treated plant relative to that on an untreated plant” value in the experiment on Sclerotinia sclerotiorum is listed as at most 30%.

Source of the values: patent publication US20100069499A1 (priority 2007, published 2010).
